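Compound exposure: 48 hours, 5 concentrations, 96-well plates. The concentration for 50% growth inhibition is given as GI50.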 Activity calls are given as the source filed them. Cut-off read from the data, not from the text of the source: active = GI50 up to about 1.1 µM and inactive = higher. Square brackets hold non-standard residues; d marks the D form. Peptide text beside a SMILES is read from it. * marks the point of attachment. Boc = CC(C)(C)OC(=O)*; Lac = C[CH](O)C(=O)O; OBn = c1ccc(CO*)cc1
Tests used:
Assay in all cases: NCI-60 cell line screen, 48 h
UACC-62 = system: UACC-62
EKVX = system: EKVX
RXF 393 = system: RXF 393
SK-MEL-5 = system: SK-MEL-5
SN12C = system: SN12C
SK-MEL-28 = system: SK-MEL-28
M14 = system: M14
HL-60 = system: HL-60
OVCAR-4 = system: OVCAR-4
IGROV-1 = system: IGROV-1
TK-10 = system: TK-10
SF-539 = system: SF-539
HCC 2998 = system: HCC 2998
A549 = system: A549
NCI-H460 = system: NCI-H460
NCI-H226 = system: NCI-H226
SR = system: SR
SF-295 = system: SF-295
MCF7 = system: MCF7
NCI/ADR-RES = system: NCI/ADR-RES

SMILES	GI50 (UACC-62)	GI50 (EKVX)	GI50 (RXF 393)	GI50 (SK-MEL-5)	GI50 (SN12C)	GI50 (SK-MEL-28)	GI50 (M14)	GI50 (HL-60)	GI50 (OVCAR-4)	GI50 (IGROV-1)	GI50 (TK-10)	GI50 (SF-539)	GI50 (HCC 2998)	GI50 (A549)	GI50 (NCI-H460)	GI50 (NCI-H226)	GI50 (SR)	GI50 (SF-295)	GI50 (MCF7)	GI50 (NCI/ADR-RES)
COc1ccc(C(=O)NNC(=O)c2nsc3ccccc23)cc1	> 100 µM (inactive)	27.2 µM (inactive)	> 100 µM (inactive)	> 100 µM (inactive)	> 100 µM (inactive)	> 100 µM (inactive)	85.7 µM (inactive)	23.3 µM (inactive)	68.9 µM (inactive)	> 100 µM (inactive)	> 100 µM (inactive)	> 100 µM (inactive)	> 100 µM (inactive)	> 100 µM (inactive)						
CCOC(=O)C1CCn2c(nc3c2c(=O)n(C)c(=O)n3C)S1 (stereo unspecified)	> 100 µM (inactive)	> 100 µM (inactive)	> 100 µM (inactive)	> 100 µM (inactive)	> 100 µM (inactive)		> 100 µM (inactive)	> 100 µM (inactive)	> 100 µM (inactive)	> 100 µM (inactive)	> 100 µM (inactive)	> 100 µM (inactive)		> 100 µM (inactive)	> 100 µM (inactive)	> 100 µM (inactive)	77.1 µM (inactive)	> 100 µM (inactive)		
CCC(=O)NC(Nc1cccc(F)c1)(C(F)(F)F)C(F)(F)F	> 100 µM (inactive)	67.3 µM (inactive)	> 100 µM (inactive)	78.7 µM (inactive)	37.7 µM (inactive)	> 100 µM (inactive)	> 100 µM (inactive)	86.9 µM (inactive)	> 100 µM (inactive)	> 100 µM (inactive)	> 100 µM (inactive)	> 100 µM (inactive)	> 100 µM (inactive)	> 100 µM (inactive)	> 100 µM (inactive)		> 100 µM (inactive)	> 100 µM (inactive)	> 100 µM (inactive)	> 100 µM (inactive)
C[C@H]1S[C@@H](c2ccc(Cl)cc2Cl)N(NC(=O)c2ccncc2)C1=O	29.6 µM (inactive)		25.4 µM (inactive)	44.8 µM (inactive)	71.3 µM (inactive)	45.2 µM (inactive)	61.8 µM (inactive)	98.4 µM (inactive)	> 100 µM (inactive)	> 100 µM (inactive)					58.2 µM (inactive)	41.6 µM (inactive)	79.4 µM (inactive)		45 µM (inactive)	21.7 µM (inactive)
Cc1n[nH]c(CC#N)n1	> 100 µM (inactive)	> 100 µM (inactive)	> 100 µM (inactive)	> 100 µM (inactive)	> 100 µM (inactive)		> 100 µM (inactive)		> 100 µM (inactive)	> 100 µM (inactive)	> 100 µM (inactive)	> 100 µM (inactive)	> 100 µM (inactive)	> 100 µM (inactive)			> 100 µM (inactive)	> 100 µM (inactive)	> 100 µM (inactive)	> 100 µM (inactive)
CC1CC2=C(S(=O)(=O)c3ccccc3)CC(S(=O)(=O)c3ccccc3)(S(=O)(=O)c3ccccc3)CC21 (stereo unspecified)	> 100 µM (inactive)	> 100 µM (inactive)	> 100 µM (inactive)	> 100 µM (inactive)	> 100 µM (inactive)	> 100 µM (inactive)	> 100 µM (inactive)	16.6 µM (inactive)	> 100 µM (inactive)	> 100 µM (inactive)	> 100 µM (inactive)	> 100 µM (inactive)	> 100 µM (inactive)	> 100 µM (inactive)	> 100 µM (inactive)	> 100 µM (inactive)	> 100 µM (inactive)	> 100 µM (inactive)		
OC1CCOc2ccccc21 (stereo unspecified)	> 100 µM (inactive)	> 100 µM (inactive)	> 100 µM (inactive)	> 100 µM (inactive)	> 100 µM (inactive)	> 100 µM (inactive)	> 100 µM (inactive)	> 100 µM (inactive)	> 100 µM (inactive)	> 100 µM (inactive)	> 100 µM (inactive)	> 100 µM (inactive)	> 100 µM (inactive)	> 100 µM (inactive)	> 100 µM (inactive)	> 100 µM (inactive)	> 100 µM (inactive)			
Cc1cc(=O)oc2c1cc1ccc3cccc4ccc2c1c34	> 100 µM (inactive)	> 100 µM (inactive)		> 100 µM (inactive)	> 100 µM (inactive)	> 100 µM (inactive)	> 100 µM (inactive)	> 100 µM (inactive)		> 100 µM (inactive)	> 100 µM (inactive)	58.6 µM (inactive)			89.3 µM (inactive)	> 100 µM (inactive)		40.4 µM (inactive)		
COP(=O)(OC)C(N)Cc1c[nH]c2ccccc12 (stereo unspecified)				> 100 µM (inactive)	> 100 µM (inactive)	> 100 µM (inactive)	> 100 µM (inactive)		> 100 µM (inactive)	> 100 µM (inactive)	> 100 µM (inactive)		> 100 µM (inactive)	> 100 µM (inactive)	> 100 µM (inactive)	> 100 µM (inactive)		> 100 µM (inactive)	> 100 µM (inactive)	> 100 µM (inactive)
Nc1ccn(C2OC(CO[PH](=O)OC3C(CO[PH](=O)OC4C(CO[PH](=O)OC5C(CO[PH](=O)OC6C(CO[PH](=O)OC7C(CO[PH](=O)OC8C(CO[PH](=O)OC9C(CO[PH](=O)OC%10C(CO[PH](=O)OC%11C(CO)OC(n%12ccc(N)nc%12=O)C%11(F)F)OC(n%11ccc(N)nc%11=O)C%10(F)F)OC(n%10ccc(N)nc%10=O)C9(F)F)OC(n9ccc(N)nc9=O)C8(F)F)OC(n8ccc(N)nc8=O)C7(F)F)OC(n7ccc(N)nc7=O)C6(F)F)OC(n6ccc(N)nc6=O)C5(F)F)OC(n5ccc(N)nc5=O)C4(F)F)OC(n4ccc(N)nc4=O)C3(F)F)C(O)C2(F)F)c(=O)n1 (stereo unspecified)	0.0466 µM (active)	5.46 µM (inactive)		1.73 µM (inactive)	0.0661 µM (active)	0.594 µM (active)		0.0193 µM (active)	10 µM (inactive)	0.912 µM (active)	3.03 µM (inactive)	0.0112 µM (active)	0.0805 µM (active)	0.016 µM (active)	0.0208 µM (active)	9.44 µM (inactive)	0.0183 µM (active)	0.0697 µM (active)	0.0103 µM (active)	0.051 µM (active)
CC1CC(C[N+](=O)[O-])CC2(C1)OCCO2 (stereo unspecified)	> 100 µM (inactive)		> 100 µM (inactive)	> 100 µM (inactive)	> 100 µM (inactive)	> 100 µM (inactive)	> 100 µM (inactive)	> 100 µM (inactive)	> 100 µM (inactive)	> 100 µM (inactive)	> 100 µM (inactive)	> 100 µM (inactive)	> 100 µM (inactive)	> 100 µM (inactive)	> 100 µM (inactive)	> 100 µM (inactive)	> 100 µM (inactive)			
Cn1c(=O)c(C#N)c(O)c2cc3ccccc3nc21		> 100 µM (inactive)	> 100 µM (inactive)	> 100 µM (inactive)	> 100 µM (inactive)	> 100 µM (inactive)	> 100 µM (inactive)	> 100 µM (inactive)	> 100 µM (inactive)	> 100 µM (inactive)	> 100 µM (inactive)	> 100 µM (inactive)	> 100 µM (inactive)	> 100 µM (inactive)	> 100 µM (inactive)	> 100 µM (inactive)	> 100 µM (inactive)	> 100 µM (inactive)		
O=C(OCCOC(=O)c1ccc2c(c1)C1(SCCS1)c1ccccc1-2)c1ccc2c(c1)C1(SCCS1)c1ccccc1-2	> 100 µM (inactive)	> 100 µM (inactive)		> 100 µM (inactive)	> 100 µM (inactive)	> 100 µM (inactive)	> 100 µM (inactive)	> 100 µM (inactive)	> 100 µM (inactive)	> 100 µM (inactive)		> 100 µM (inactive)	> 100 µM (inactive)	> 100 µM (inactive)	> 100 µM (inactive)	> 100 µM (inactive)	> 100 µM (inactive)	> 100 µM (inactive)		
O=C1NC(O)CCN1C1OC(CO)C(O)C1O (stereo unspecified)	> 250 µM (inactive)	> 250 µM (inactive)	> 250 µM (inactive)	> 66.4 µM (inactive)	> 250 µM (inactive)	> 250 µM (inactive)		> 250 µM (inactive)	> 250 µM (inactive)	> 250 µM (inactive)		> 250 µM (inactive)	> 250 µM (inactive)	> 250 µM (inactive)	> 250 µM (inactive)	> 250 µM (inactive)		> 250 µM (inactive)	> 250 µM (inactive)	> 250 µM (inactive)
CC(OC(=O)C(Cc1ccccc1)NC(=O)C(Cc1ccccc1)NC(=O)OC(C)(C)C)C(=O)OCc1ccccc1 (stereo not drawn) (Boc-Phe-Phe-[Lac]-OBn; configuration not given here)	> 10 µM (inactive)		> 100 µM (inactive)	> 100 µM (inactive)	> 100 µM (inactive)	> 100 µM (inactive)	87.1 µM (inactive)	> 100 µM (inactive)		> 100 µM (inactive)			> 100 µM (inactive)		> 100 µM (inactive)	> 100 µM (inactive)	> 100 µM (inactive)	> 100 µM (inactive)	17.8 µM (inactive)	> 100 µM (inactive)
CC/C=C\C/C=C\C/C=C\CCCCCCCC(=O)OC [METHYL LINOLENATE]	> 100 µM (inactive)	> 100 µM (inactive)		> 100 µM (inactive)	> 100 µM (inactive)	> 100 µM (inactive)		22.8 µM (inactive)	> 100 µM (inactive)	> 100 µM (inactive)		> 100 µM (inactive)	> 100 µM (inactive)	> 100 µM (inactive)	> 100 µM (inactive)	> 100 µM (inactive)		> 100 µM (inactive)	> 100 µM (inactive)	> 100 µM (inactive)

Reference: ChEMBL document CHEMBL1201862, “PubChem BioAssay data set” (2004)
